Data taken from patent publication US12291521B2, “Indazole compounds as mGluR4 allosteric potentiators, compositions, and methods of treating neurological dysfunction” (Vanderbilt University, priority 2017, dated 2025).
Read-outs that look alike come from different tables or passages of the source.

Assays:
human mGlu4 = molecular target: T1, human mGlu4 (Homo sapiens, UniProt Q14833); assay: mGlu4 PAM potentiation in human mGlu4/Gqi5 cells with ~EC20 glutamate (Hamamatsu FDSS); assay type: cell-based; conditions: ~EC20 concentration of glutamate
T1 construct: expressed in transfected cells; host or cells: CHO (Chinese Hamster Ovary) cells
T1 sequence (Q14833 33-912): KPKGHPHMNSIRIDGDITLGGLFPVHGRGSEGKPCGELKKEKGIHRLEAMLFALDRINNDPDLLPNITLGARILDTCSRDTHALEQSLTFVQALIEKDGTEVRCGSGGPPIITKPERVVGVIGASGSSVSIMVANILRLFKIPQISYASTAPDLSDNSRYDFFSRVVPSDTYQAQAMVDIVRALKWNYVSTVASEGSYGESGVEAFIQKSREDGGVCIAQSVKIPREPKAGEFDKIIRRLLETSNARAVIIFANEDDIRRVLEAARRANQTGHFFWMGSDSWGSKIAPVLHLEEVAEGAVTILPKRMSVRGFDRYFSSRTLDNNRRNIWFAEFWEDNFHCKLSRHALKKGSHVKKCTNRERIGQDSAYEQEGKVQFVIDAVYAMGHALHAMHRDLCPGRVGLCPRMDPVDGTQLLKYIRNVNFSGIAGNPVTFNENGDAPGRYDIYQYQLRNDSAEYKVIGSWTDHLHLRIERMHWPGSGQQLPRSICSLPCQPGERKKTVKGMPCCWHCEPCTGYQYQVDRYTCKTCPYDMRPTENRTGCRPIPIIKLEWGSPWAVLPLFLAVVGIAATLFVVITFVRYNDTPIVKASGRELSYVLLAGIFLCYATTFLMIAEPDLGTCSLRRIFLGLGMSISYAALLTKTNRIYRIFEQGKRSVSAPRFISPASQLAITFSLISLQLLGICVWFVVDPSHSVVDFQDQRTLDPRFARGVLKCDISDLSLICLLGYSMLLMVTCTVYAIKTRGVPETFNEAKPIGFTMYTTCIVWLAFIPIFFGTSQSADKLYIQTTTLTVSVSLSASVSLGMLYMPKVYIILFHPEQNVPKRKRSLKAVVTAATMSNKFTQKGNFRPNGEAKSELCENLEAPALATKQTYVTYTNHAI
Protocol: The disclosed compounds and compositions can be evaluated for their ability to act as a potentiatior of metabotropic glutamate receptor activity, in particular mGluR4 activity, by any suitable known methodology known in the art. For example, Chinese Hamster Ovary (CHO) cells transfected with human mGluR4 or HEK cells co-transfected with rat mGluR4 and the G-protein regulated Inwardly Rectifying Potassium channel (GIRK) were plated in clear bottom assay plates for assay in a Hamamatsu FDSS Fluorometric Plate Reader. The cells were loaded with either a Ca2+-sensitive fluorescent dye or the thallium responsive dye and the plates were washed and placed into a suitable kinetic plate reader. For human mGluR4 assays, a fluorescence baseline was established for 3-5 seconds, the disclosed compounds were then added to the cells, and the response in cells was measured. Approximately two and a half minutes later, a concentration of mGluR4 orthosteric agonist (e.g. glutamate, L-AP4, or L-SOP) eliciting approximately 20% (EC20) of the maximal agonist response was added to the cells, and the response was measured. Two minutes later, a concentration of mGluR4 agonist (e.g. glutamate, L-AP4, or L-SOP) eliciting 80% (EC80) of the maximal agonist response was added to the cells, and the response was measured. For rat mGluR4/GIRK experiments, a baseline was established for approximately five seconds, disclosed compounds were added, and either an EC20 or EC80 concentration of agonist was added approximately two and one half minutes later.
The above described assay operated in two modes. In the first mode, a range of concentrations of the disclosed compounds are added to cells, followed by a single fixed concentration of agonist. If the compound acts as a potentiatior, an EC50 value for potentiation and a maximum extent of potentiation by the compound at this concentration of agonist is determined by non-linear curve fitting. If the compound acts as an antagonist, an IC50 value is determined by non-linear curve fitting. In the second mode, several fixed concentrations of the disclosed compounds are added to various wells on a plate, followed by a range in concentrations of agonist for each concentration of disclosed compound. The EC50 values for the agonist at each concentration of compound are determined by non-linear curve fitting. A decrease in the EC50 value of the agonist with increasing concentrations of the sample compound (a leftward shift of the agonist concentration-response curve) is an indication of the degree of mGluR4 potentiation at a given concentration of the sample compound. A decrease in the maximal response of the agonist with increasing concentrations of the sample compounds, with or without a rightward shift in agonist potency, is an indication of the degree of antagonism at mGluR4. The second mode also indicates whether the sample compounds also affect the maximum response to mGluR4 to agonists.

[1] = Brain-plasma Kp (CNS penetration); assay type: in vivo; conditions: rat, brain and plasma; species not given

Row | SMILES | EC50 (human mGlu4; read-out: mGlu4 PAM EC50) | EC50 (human mGlu4; second chart, read-out: hmGluR4 PAM EC50) | Kp [1]
1 | Cc1cc(COc2nn(C)c3cc(Nc4n[nH]c5cccnc45)ccc23)on1 [Compound 2] | 104 nM | – | –
2 | Cc1ccnc(C(=O)Nc2ccc3c(OCC4CCOC4)nn(C)c3c2)c1 (stereo not shown) [Compound 98] | 991 nM | – | –
3 | CC(C)COc1nn(C)c2cc(Nc3n[nH]c4cccnc34)ccc12 [Compound 3] | 231 nM | – | –
4 | Cn1nc(OCC2CCCOC2)c2ccc(NC(=O)c3ccc(F)cn3)cc21 (stereo not shown) | – | 99.2 nM | 3.29
5 | Cn1nc(OCc2cccnc2)c2ccc(Nc3n[nH]c4cccnc34)cc21 [Compound 6] | 82.7 nM | – | –
6 | CC(C)Oc1nn(C)c2cc(Nc3n[nH]c4cccnc34)ccc12 [Compound 1] | 413 nM | – | –
